# pKd: −log10 of the molar value. The source made the active and inactive calls. Rule as the data show it, for most assays here: actives have a measured Kd and inactives only a lower limit.
# Experiments:
# [1] = molecular target: DNA topoisomerase 2-alpha (Homo sapiens, UniProt P11388)
# [2] = molecular target: Cyclin-dependent kinase 1 (Homo sapiens, UniProt P06493)
# [3] = molecular target: Glycogen synthase kinase-3 beta (Homo sapiens, UniProt P49841)
# [4] = molecular target: Serine/threonine-protein kinase 16 (Homo sapiens, UniProt O75716)
# Sequence of Serine/threonine-protein kinase 16 (O75716 whole entry): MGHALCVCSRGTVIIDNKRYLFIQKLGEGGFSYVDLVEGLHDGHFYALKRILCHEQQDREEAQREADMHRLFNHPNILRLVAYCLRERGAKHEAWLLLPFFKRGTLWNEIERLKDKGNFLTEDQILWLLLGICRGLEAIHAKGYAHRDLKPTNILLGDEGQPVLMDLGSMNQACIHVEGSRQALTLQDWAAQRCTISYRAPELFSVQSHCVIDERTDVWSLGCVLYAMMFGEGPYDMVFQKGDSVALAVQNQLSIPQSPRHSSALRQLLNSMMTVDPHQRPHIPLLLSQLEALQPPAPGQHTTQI
# [5] = molecular target: Eukaryotic translation initiation factor 2-alpha kinase 1 (Homo sapiens, UniProt Q9BQI3)
# [6] = molecular target: High affinity nerve growth factor receptor (Homo sapiens, UniProt P04629)
# Sequence of High affinity nerve growth factor receptor (P04629 whole entry): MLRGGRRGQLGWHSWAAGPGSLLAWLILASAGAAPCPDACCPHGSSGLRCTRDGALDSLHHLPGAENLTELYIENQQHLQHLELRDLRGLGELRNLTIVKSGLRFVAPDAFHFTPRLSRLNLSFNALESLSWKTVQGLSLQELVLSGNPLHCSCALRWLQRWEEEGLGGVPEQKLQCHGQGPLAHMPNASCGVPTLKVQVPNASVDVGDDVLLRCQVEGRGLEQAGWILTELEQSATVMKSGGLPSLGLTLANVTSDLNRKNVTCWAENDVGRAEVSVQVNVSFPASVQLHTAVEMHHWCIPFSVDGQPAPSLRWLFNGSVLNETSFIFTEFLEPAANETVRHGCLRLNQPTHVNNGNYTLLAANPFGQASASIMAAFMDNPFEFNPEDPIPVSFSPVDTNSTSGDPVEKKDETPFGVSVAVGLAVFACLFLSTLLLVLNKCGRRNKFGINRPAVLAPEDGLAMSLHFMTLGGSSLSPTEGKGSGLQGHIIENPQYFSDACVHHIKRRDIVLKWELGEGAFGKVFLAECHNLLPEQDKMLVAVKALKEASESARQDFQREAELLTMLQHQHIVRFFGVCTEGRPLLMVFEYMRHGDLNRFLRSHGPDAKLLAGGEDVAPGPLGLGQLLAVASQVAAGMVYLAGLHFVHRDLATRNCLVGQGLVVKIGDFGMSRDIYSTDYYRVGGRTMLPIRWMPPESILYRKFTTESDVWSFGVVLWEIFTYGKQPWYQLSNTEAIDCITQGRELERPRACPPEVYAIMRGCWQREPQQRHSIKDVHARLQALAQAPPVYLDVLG
# [7] = molecular target: T1, RNA cytidine acetyltransferase (Homo sapiens, UniProt Q9H0A0)
# T1 sequence (Q9H0A0 whole entry): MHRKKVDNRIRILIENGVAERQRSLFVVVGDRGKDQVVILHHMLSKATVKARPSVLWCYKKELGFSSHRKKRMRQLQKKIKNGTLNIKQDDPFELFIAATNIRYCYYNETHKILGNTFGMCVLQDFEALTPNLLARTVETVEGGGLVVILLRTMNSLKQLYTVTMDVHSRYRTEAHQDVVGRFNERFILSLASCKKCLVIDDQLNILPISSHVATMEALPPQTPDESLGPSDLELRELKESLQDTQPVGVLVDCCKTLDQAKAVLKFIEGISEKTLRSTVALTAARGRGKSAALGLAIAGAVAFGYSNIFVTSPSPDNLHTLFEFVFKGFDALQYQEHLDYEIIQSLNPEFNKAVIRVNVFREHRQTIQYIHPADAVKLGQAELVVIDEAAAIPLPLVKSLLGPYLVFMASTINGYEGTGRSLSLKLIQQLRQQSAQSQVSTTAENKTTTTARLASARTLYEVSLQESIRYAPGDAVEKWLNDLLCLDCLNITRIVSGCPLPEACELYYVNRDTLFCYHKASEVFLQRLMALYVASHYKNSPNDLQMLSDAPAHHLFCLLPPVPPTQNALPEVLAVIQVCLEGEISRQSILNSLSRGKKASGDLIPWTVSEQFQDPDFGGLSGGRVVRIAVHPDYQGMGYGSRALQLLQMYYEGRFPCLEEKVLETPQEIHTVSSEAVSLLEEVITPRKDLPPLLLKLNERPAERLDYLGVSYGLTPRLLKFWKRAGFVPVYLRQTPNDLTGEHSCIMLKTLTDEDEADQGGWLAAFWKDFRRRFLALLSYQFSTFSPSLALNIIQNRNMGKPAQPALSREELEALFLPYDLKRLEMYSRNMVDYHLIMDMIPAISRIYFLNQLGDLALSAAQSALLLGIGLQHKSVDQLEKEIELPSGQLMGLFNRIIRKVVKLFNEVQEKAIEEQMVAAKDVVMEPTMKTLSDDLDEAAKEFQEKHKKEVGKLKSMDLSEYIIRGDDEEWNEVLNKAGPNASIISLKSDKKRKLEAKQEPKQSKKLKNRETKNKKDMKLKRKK
# [8] = molecular target: T2, MAP kinase-activated protein kinase 5 (Homo sapiens, UniProt Q8IW41)
# T2 sequence (Q8IW41 whole entry): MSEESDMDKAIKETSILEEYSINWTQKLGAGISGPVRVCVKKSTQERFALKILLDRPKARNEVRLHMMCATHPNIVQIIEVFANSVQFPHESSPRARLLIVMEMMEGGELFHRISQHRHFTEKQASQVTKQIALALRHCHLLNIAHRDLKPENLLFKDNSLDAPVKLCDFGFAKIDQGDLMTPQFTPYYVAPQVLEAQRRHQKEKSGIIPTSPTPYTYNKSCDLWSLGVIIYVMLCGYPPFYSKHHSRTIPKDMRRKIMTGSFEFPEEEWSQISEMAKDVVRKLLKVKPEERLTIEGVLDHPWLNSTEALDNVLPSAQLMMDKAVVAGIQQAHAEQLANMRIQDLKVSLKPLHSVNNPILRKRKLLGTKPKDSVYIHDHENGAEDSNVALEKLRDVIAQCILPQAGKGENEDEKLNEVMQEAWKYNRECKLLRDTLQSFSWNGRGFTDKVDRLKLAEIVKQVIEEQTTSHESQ
# [9] = molecular target: T3, Dual specificity mitogen-activated protein kinase kinase 3 (Homo sapiens, UniProt P46734)
# T3 sequence (P46734 whole entry): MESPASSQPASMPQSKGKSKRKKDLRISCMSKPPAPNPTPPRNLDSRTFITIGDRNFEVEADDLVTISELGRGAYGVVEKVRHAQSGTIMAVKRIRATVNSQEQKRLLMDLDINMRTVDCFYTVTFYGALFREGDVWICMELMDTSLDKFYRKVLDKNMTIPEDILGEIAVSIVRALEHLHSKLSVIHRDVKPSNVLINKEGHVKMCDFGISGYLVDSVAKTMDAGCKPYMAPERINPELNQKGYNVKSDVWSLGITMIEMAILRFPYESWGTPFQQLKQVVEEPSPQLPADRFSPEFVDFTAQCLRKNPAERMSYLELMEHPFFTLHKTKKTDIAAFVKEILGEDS
# [10] = molecular target: Serine/threonine-protein kinase SIK2 (Homo sapiens, UniProt Q9H0K1)
# Sequence of Serine/threonine-protein kinase SIK2 (Q9H0K1 whole entry): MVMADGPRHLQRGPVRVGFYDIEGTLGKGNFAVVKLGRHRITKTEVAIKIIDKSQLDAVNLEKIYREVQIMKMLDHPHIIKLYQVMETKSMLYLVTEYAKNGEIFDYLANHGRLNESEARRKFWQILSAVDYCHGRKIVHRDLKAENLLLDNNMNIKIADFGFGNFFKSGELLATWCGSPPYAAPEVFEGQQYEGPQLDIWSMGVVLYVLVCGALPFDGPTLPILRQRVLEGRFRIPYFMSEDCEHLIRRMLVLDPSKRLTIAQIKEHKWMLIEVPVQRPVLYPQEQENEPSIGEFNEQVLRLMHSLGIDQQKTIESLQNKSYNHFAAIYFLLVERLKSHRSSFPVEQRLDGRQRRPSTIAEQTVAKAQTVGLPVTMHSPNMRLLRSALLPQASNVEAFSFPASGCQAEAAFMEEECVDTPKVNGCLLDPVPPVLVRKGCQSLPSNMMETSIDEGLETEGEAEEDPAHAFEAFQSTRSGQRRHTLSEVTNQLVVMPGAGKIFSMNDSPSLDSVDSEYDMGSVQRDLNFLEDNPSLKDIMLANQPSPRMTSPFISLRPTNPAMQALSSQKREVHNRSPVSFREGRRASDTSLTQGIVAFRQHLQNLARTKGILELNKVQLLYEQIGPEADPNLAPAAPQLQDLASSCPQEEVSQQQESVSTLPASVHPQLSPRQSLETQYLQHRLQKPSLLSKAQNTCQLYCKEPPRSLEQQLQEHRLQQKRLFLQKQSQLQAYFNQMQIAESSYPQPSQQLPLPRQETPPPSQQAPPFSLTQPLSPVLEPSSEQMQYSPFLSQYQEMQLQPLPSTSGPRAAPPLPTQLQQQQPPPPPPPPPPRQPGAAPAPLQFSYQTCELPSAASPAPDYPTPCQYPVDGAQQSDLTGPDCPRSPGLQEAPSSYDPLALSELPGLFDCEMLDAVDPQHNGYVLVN
# [11] = molecular target: Mitogen-activated protein kinase kinase kinase 20 (Homo sapiens, UniProt Q9NYL2)
# Sequence of Mitogen-activated protein kinase kinase kinase 20 (Q9NYL2 whole entry): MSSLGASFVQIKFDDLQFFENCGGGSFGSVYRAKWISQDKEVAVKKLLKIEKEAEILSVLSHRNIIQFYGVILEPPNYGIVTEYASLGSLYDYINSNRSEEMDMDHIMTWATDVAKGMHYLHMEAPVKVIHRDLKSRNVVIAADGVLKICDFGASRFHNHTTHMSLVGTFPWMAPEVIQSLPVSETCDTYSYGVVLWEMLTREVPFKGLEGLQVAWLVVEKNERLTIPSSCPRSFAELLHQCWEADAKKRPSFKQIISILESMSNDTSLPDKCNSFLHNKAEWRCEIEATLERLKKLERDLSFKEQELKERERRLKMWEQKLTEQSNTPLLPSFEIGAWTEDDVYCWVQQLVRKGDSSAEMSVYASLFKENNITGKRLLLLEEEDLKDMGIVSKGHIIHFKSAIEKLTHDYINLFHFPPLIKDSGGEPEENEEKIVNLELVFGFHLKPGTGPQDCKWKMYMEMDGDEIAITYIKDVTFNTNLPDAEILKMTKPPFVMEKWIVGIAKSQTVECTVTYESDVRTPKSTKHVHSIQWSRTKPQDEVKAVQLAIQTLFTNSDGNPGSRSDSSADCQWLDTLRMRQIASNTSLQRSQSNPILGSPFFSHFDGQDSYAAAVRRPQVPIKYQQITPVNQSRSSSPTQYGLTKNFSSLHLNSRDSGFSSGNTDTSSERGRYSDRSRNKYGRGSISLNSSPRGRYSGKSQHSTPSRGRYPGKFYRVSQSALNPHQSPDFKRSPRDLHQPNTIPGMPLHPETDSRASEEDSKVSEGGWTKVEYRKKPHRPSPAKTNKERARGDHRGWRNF
# Heme oxygenase 2 = molecular target: T4, Heme oxygenase 2 (Homo sapiens, UniProt P30519)
# T4 sequence (P30519 whole entry): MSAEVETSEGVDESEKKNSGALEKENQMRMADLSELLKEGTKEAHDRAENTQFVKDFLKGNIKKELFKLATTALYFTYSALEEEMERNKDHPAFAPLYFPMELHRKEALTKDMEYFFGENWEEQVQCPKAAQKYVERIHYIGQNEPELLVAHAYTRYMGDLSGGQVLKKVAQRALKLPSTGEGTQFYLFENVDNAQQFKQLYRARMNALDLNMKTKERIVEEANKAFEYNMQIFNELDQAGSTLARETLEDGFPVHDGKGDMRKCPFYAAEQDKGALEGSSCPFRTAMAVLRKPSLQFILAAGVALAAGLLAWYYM
# [12] = molecular target: Calcium/calmodulin-dependent protein kinase kinase 2 (Homo sapiens, UniProt Q96RR4)
# Sequence of Calcium/calmodulin-dependent protein kinase kinase 2 (Q96RR4 whole entry, canonical isoform): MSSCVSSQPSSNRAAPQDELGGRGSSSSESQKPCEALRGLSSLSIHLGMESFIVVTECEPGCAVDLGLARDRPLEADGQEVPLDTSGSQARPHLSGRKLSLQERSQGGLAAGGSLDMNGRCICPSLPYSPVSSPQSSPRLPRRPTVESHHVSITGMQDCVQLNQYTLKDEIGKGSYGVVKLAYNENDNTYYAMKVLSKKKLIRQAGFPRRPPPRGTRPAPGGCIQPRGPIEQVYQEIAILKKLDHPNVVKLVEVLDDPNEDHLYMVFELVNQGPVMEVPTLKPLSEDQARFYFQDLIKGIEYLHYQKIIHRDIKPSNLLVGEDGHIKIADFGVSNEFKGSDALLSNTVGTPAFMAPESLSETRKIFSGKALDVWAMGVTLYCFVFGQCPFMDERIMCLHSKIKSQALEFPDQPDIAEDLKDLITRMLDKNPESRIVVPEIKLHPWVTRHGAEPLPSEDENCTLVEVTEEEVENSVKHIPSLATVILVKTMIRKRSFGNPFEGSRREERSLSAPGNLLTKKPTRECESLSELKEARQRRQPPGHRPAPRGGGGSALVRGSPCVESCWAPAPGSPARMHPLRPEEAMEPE
# [13] = molecular target: Casein kinase I isoform epsilon (Homo sapiens, UniProt P49674)
# Sequence of Casein kinase I isoform epsilon (P49674 whole entry, canonical isoform): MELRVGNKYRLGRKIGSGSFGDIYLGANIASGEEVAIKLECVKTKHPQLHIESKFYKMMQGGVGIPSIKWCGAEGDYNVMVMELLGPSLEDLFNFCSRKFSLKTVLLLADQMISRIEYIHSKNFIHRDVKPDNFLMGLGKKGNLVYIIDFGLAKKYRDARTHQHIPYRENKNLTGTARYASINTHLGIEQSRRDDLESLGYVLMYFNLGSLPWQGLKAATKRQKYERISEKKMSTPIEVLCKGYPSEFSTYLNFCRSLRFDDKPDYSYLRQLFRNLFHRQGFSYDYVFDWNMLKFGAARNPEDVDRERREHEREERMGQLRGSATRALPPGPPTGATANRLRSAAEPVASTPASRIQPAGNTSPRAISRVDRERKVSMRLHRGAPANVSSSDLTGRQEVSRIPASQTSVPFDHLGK
# Also: in the data inactive means no Kd found up to 30 µM.
# Sequence of Glycogen synthase kinase-3 beta (P49841 whole entry): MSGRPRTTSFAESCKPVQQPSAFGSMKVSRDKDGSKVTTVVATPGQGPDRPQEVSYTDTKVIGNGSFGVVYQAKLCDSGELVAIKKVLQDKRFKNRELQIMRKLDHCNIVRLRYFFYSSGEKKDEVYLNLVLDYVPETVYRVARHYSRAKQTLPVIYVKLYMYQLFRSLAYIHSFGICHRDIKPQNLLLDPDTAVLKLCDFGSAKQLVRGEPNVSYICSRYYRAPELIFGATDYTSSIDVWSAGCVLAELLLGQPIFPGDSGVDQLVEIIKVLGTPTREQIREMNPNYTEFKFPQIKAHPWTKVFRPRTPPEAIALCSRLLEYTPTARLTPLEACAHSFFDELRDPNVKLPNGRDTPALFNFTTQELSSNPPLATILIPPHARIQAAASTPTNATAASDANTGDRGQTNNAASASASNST
# Sequence of Cyclin-dependent kinase 1 (P06493 whole entry): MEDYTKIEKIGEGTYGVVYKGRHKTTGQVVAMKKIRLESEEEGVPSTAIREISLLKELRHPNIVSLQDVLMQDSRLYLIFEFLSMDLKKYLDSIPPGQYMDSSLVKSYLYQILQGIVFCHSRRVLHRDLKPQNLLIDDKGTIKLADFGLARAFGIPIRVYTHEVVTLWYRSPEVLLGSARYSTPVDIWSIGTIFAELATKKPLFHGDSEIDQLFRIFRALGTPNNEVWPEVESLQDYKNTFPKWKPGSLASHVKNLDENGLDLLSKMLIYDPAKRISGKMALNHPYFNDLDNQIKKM
SMILES,Kd [1],Kd [2],Kd [3],Kd [4],Kd [5],Kd [6],Kd [7],Kd [8],Kd [9],Kd [10],Kd [11],Kd (Heme oxygenase 2),Kd [12],Kd [13],pKd [13],pKd (Heme oxygenase 2)
CO[C@H]1C[C@@H]2CC[C@@H](C)[C@@](O)(O2)C(=O)C(=O)N2CCCC[C@H]2C(=O)O[C@H]([C@H](C)C[C@@H]2CC[C@@H](OC(=O)C(C)(CO)CO)[C@H](OC)C2)CC(=O)[C@H](C)/C=C(\C)[C@@H](O)[C@@H](OC)C(=O)[C@H](C)C[C@H](C)/C=C/C=C/C=C/1C [TEMSIROLIMUS],> 30 µM (inactive),> 30 µM (inactive),> 30 µM (inactive),> 30 µM (inactive),> 30 µM (inactive),> 30 µM (inactive),> 30 µM (inactive),> 30 µM (inactive),> 30 µM (inactive),> 30 µM (inactive),> 30 µM (inactive),> 30 µM (inactive),> 30 µM (inactive),> 30 µM (inactive),–,–
COc1cc2c(Nc3ccc(Cl)c(Cl)c3F)ncnc2cc1OC[C@@H]1C[C@@H]2CN(C)C[C@@H]2C1 [TESEVATINIB],> 30 µM (inactive),> 30 µM (inactive),> 30 µM (inactive),> 30 µM (inactive),> 30 µM (inactive),> 30 µM (inactive),> 30 µM (inactive),> 30 µM (inactive),> 30 µM (inactive),> 30 µM (inactive),> 30 µM (inactive),> 30 µM (inactive),> 30 µM (inactive),–,5.99,–
O=C(Cc1ccc(-c2ccc(OCCN3CCOCC3)cc2)cn1)NCc1ccccc1 [TIRBANIBULIN],> 30 µM (inactive),> 30 µM (inactive),> 30 µM (inactive),> 30 µM (inactive),> 30 µM (inactive),> 30 µM (inactive),> 30 µM (inactive),> 30 µM (inactive),> 30 µM (inactive),> 30 µM (inactive),> 30 µM (inactive),> 30 µM (inactive),> 30 µM (inactive),> 30 µM (inactive),–,–
O=C1NC(=O)[C@@H](c2cn3c4c(cccc24)CCC3)[C@@H]1c1c[nH]c2ccccc12 [TIVANTINIB],> 30 µM (inactive),> 30 µM (inactive),> 30 µM (inactive),> 30 µM (inactive),> 30 µM (inactive),> 30 µM (inactive),> 30 µM (inactive),> 30 µM (inactive),> 30 µM (inactive),> 30 µM (inactive),> 30 µM (inactive),–,> 30 µM (inactive),> 30 µM (inactive),–,6.92
C[C@@H](NC(=O)c1ncnc(N)c1Cl)c1ncc(C(=O)Nc2cc(C(F)(F)F)c(Cl)cn2)s1 [TOVORAFENIB],> 30 µM (inactive),> 30 µM (inactive),> 30 µM (inactive),> 30 µM (inactive),> 30 µM (inactive),> 30 µM (inactive),> 30 µM (inactive),> 30 µM (inactive),> 30 µM (inactive),> 30 µM (inactive),0.45 µM (active),> 30 µM (inactive),> 30 µM (inactive),> 30 µM (inactive),–,–
Cc1cc(Nc2ncnc3ccc(NC4=NC(C)(C)CO4)cc23)ccc1Oc1ccn2ncnc2c1 [TUCATINIB],> 30 µM (inactive),> 30 µM (inactive),> 30 µM (inactive),> 30 µM (inactive),> 30 µM (inactive),> 30 µM (inactive),> 30 µM (inactive),> 30 µM (inactive),> 30 µM (inactive),> 30 µM (inactive),> 30 µM (inactive),> 30 µM (inactive),> 30 µM (inactive),> 30 µM (inactive),–,–
C[C@@H](N)c1ccc(C(=O)Nc2ccnc3[nH]ccc23)cc1 [Y-39983],> 30 µM (inactive),> 30 µM (inactive),0.924 µM (active),> 30 µM (inactive),> 30 µM (inactive),> 30 µM (inactive),> 30 µM (inactive),> 30 µM (inactive),> 30 µM (inactive),> 30 µM (inactive),> 30 µM (inactive),> 30 µM (inactive),> 30 µM (inactive),> 30 µM (inactive),–,–
